In patent publication US20120101024A1, “Methods and Compositions for Differentiating Embryonic Stem Cells” (REGENERATIVE RESEARCH FOUNDATION, priority 2010, published 2012):

Experiments:
NPTX1 = NPTX1 knock down by lentiviral shRNA in hESCs, message level; format: cell-based, human; conditions: day 3 of neural differentiation
Protocol: (§1) Feeder free neural induction was carried out as previously described (Chambers et al., supra). Briefly, hESC cultures (WA-09 cells) were disaggregated using Accutase (Innovative Cell Technologies, Inc., San Diego, Calif.) for 20 minutes, washed using hESC media and pre-plated on gelatin for 1 hour at 37° C. in the presence of ROCK inhibitor (Sigma, Carlsbad, Calif.) to remove MEFs. The nonadherent hESCs were washed and plated at a density of 20,000 cells/cm^2 on BD Matrigel™ matrix (BD Biosciences, San Diego, Calif.) coated dishes in MEF conditioned hESCs media (CM) spiked with 10 ng/mL of FGF-2 and ROCK-inhibitor (Sigma). The ROCK inhibitor was withdrawn, and hESCs were allowed to expand in CM for 3 days or until they were nearly confluent. The initial differentiation media conditions included knock out serum replacement (KSR) media with […] TGF-β inhibitor (SB431542, Tocris) and 500 ng/mL of Noggin (R&D Systems). Upon day 5 of differentiation, increasing amounts of N2 media (Fasano et al., 2010, supra) (25%, 50%, 75%) was added to the KSR media every two days while maintaining 500 ng/mL of Noggin and TGF-β inhibitor.
(§2) Total RNA was extracted using an RNeasy kit (Qiagen). For each sample, 1 μg of total RNA was treated for DNA contamination and reverse transcribed using Quantitect first strand kit (Qiagen). Amplified material was detected using Taqman probes and PCR mix (ABI) on a Mastercycler RealPlex2 (Eppendorf). All results were normalized to a HPRT control and were from 3 technical replicates of 3 independent biological samples at each data point.
NPTX1 open reading frame (ORF) was generated by PCR. This fragment was cloned into the BamH1 and NotI sites of the lentiviral vector, pCDH-EF1-MCS-IRES GFP(SBI Biosciences). […] Viral titers were measured by serial dilution on NIH 3T3 cells (ATCC Deposit No. CRL-1658) followed by flow cytometric analysis after 72 hours. […]

hESCs (WA-09) [1] = experiment: Neural induction of hESCs (dual SMAD inhibition protocol), marker expression by qRT-PCR / immunostaining; format: cell-based, human; conditions: for expression of the neural genes SOX1 and PAX6 (mRNA) compared to control: control empty vector
Protocol: as §1, §2
Cells were fixed using 4% paraformaldehyde for 15 minutes, washed with PBS, permeabilized using 0.3% Triton X in PBS, and blocked using 10% normal goat serum. Primary antibody used for microscopy was PAX6 (DSHB).
hESCs (WA-09; passages 35) were dissociated and plated on Matrigel with the ROCK inhibitor as single cells. 24 hrs post plating the ESCs were transduced with either control (empty vector), NPTX1 shRNA, or NPTX10RF containing vectors. One (1) week later, GFP-expressing colonies were manually picked and plated on MEFs. Cells were then expanded, tested for mycoplasma.
(§3) Antibodies used for performing immunocytochemistry, methods for which are described in Fasano et al., 2007, and 2010, supra, were obtained commercially as follows: PAX6 (Developmental Studies Hybridoma Bank (Iowa City, Iowa)), SOX2 (Santa Cruz Biotechnology (SCBT) (Santa Cruz, Calif.)), Nestin (Chemicon (Temecula, Calif.)), Nanog (SCBT), OCT-4 (SCBT), SMAD3 and SMAD1 (Cell Signaling Technology, Inc., Danvers, Mass.), FOXG1 (NeuraCell, Rensselaer, N.Y.), SSEA-4, SSEA-3, SSEA-1 (BD Pharmingen (San Diego, Calif.)). Alexa secondary antibodies were purchased from Invitrogen.

hESCs (WA-09) [2] = experiment: Neurosphere assay on cells isolated at day 7 of differentiation; format: cell-based, human
Description: To assess the neural character of the cells generated, the resulting cells were isolated at day 7 of differentiation and subjected to a neurosphere assay. […] In control conditions, the neural genes PAX6 and SOX1 started to appear around day 4 (FIGS. 4B and 4C, respectively).

hESCs [3] = experiment: Dual SMAD protocol with substituted factors, PAX6 and SMAD1 at day 7 (BMP signaling); format: cell-based, human; conditions: after 7 days of differentiation
Protocol: as §1, §3
The directed neural differentiation paradigm used in this study employed the use of both a TGF-beta blocker (SB431542) and Noggin, a BMP blocker, as it has been shown that blocking only TGF-beta is not sufficient to drive neural commitment. While CRIPTO works to enhance NODAL signaling, it has been shown that NODAL itself can bind up BMPs and thus lower BMP signaling. Because NPTX1 depletes available CRIPTO in the extracelluar space and cell surface, it seemed plausible that the resulting excess Nodal could dampen BMP signaling. To test whether NPTX1 expression can reduce BMP signaling, the dual SMAD protocol was employed to generate neural cells (addition of Noggin and TGF-beta inhibitor SB431542).
In one condition, Noggin was substituted with a CRIPTO blocking antibody to see if CRIPTO loss could result in robust neural differentiation. As a positive control for BMP signaling, another group was treated with high levels of BMP7. After 7 days of differentiation, neural marker expression and SMAD1 levels were determined.

CRIPTO = biological target: T1, CRIPTO (Homo sapiens, UniProt P13385); experiment: Co-immunoprecipitation of CRIPTO with NPTX1-His from membrane fraction of hESCs; format: binding; conditions: conditioned media applied to hESCs for 1 hour
T1 construct: endogenous in cells; host or cells: hESCs (WA-09), membrane fraction of lysed cells
T1 sequence (P13385 31-150): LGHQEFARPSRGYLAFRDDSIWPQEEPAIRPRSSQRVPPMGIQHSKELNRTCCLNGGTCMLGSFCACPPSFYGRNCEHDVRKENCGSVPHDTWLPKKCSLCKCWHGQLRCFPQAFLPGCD

hESCs [4] = experiment: Recombinant CRP added to hESCs in neural differentiation conditions, mRNA at day 7; format: cell-based, human; conditions: 2 μg/ml, administered on days 0, 3 and 5; 7 days
Protocol: as §2
C-Reactive Protein (CRP) is a pentraxin protein that is found in the blood, and levels of which rise in response to stress and/or inflammation. […] It was also reported that, when CRP levels went over a particular threshold at 4-weeks of gestation, the time at which nervous system development occurs, an increased rate of miscarriage was identified. In the present Example, it was thus tested whether another member of the pentraxin protein family, in addition to NPTX1 might play an important role in neural differentiation. Recombinant CRP(R&D Systems, 2 μg/ml) or a vehicle control was added to hESCs cultured in conditions that would allow for neural development to proceed normally in the dish. […] Such acceleration of human development could be a cue for miscarriage and/or neural birth defects in fetuses exposed to high levels of CRP during this critical time of gestation.

[5] = day 7 of neural differentiation

shRNA1: lentiviral NPTX1 shRNA, AGT AAA GAG TGG AGA AAG A (SEQ ID NO: 42); did not knock down, used as negative control (AGTAAAGAGTGGAGAAAGA)
knock down of NPTX1 at the message level (NPTX1): did not knock down NPTX1
expression of the neural genes SOX1 and PAX6 (mRNA) compared to control (hESCs (WA-09) [1]; [5]): no effect

shRNA3: lentiviral NPTX1 shRNA, GAG AAA GGT CAG AAA GAC A (SEQ ID NO: 44) (GAGAAAGGTCAGAAAGACA)
knock down of NPTX1 at the message level (NPTX1): successfully knocked down NPTX1
expression of the neural genes SOX1 and PAX6 (mRNA) compared to control (hESCs (WA-09) [1]; [5]): significantly reduced levels
expression of early neuroectodermal markers GBX2 and SOX2 (qRT-PCR) (hESCs (WA-09) [1]; days 0-7, days 5 and 7 statistically significant): drastic reduction

shRNA2: lentiviral NPTX1 shRNA, ACG TGT AGG TTG AGA ACA A (SEQ ID NO: 43) (ACGTGTAGGTTGAGAACAA)
knock down of NPTX1 at the message level (NPTX1): successfully knocked down NPTX1
SMAD2 and SMAD3 gene expression (RT-PCR) (hESCs (WA-09) [1]; NPTX1 knockdown hESCs): elevated gene expression
NANOG and OCT4 levels compared to control (hESCs (WA-09) [1]; day 7 of differentiation): elevated levels
CRIPTO expression compared to control-treated cells (hESCs (WA-09) [1]; [5]): 20 fold
expression of the neural genes SOX1 and PAX6 (mRNA) compared to control (hESCs (WA-09) [1]; [5]): significantly reduced levels
gene expression of PAX6 and SOX1 along the time course compared to control (hESCs (WA-09) [1]; time course of neural differentiation): much delayed and at much lower levels
number of neurospheres compared to control (hESCs (WA-09) [2]): significant reduction

NC(=O)c1ccc(-c2nc(-c3ccc4c(c3)OCO4)c(-c3ccccn3)[nH]2)cc1 [SB431542, reference compound]
PAX6 expression (hESCs [3]): few PAX6 cells
pSMAD1 / SMAD1 levels (hESCs [3]): high pSMAD1 levels

B1: NPTX1-His: NPTX1 protein with six HIS amino acids on the N-terminus, in conditioned media (protein)
chain: HHHHHHQDFGPTRFICTSVPVDADMCAASVAAGGAEELRSSVLQLRETVLQQKETILSQKETIRELTAKLGRCESQSTLDPGAGEARAGGGRKQPGSGKNTMGDLSRTPAAETLSQLGQTLQSLKTRLENLEQYSRLNSSSQTNSLKDLLQSKIDELERQVLSRVNTLEEGKGGPRNDTEERVKIETALTSLHQRISELEKGQKDNRPGDKFQLTFPLRTNYMYAKVKKSLPEMYAFTVCMWLKSSATPGVGTPFSYAVPGQANELVLIEWGNNPMEILINDKVAKLPFVINDGKWHHICVTWTTRDGVWEAYQDGTQGGSGENLAPYHPIKPQGVLVLGQEQDTLGGGFDATQAFVGELAHFNIWDRKLTPGEVYNLATCSTKALSGNVIAWAESHIEIYGGATKWTFEACRQIN
co-immunoprecipitation with CRIPTO (CRIPTO): coimmunoprecipitate

B2: BMP7: positive control for BMP signaling, high levels of BMP7 (protein, UniProt P18075 293-431, looked up)
Bone morphogenetic protein 7: STGSKQRSQNRSKTPKNQEALRMANVAENSSSDQRQACKKHELYVSFRDLGWQDWIIAPEGYAAYYCEGECAFPLNSYMNATNHAIVQTLVHFINPETVPKPCCAPTQLNAISVLYFDDSSNVILKKYRNMVVRACGCH
PAX6 expression (hESCs [3]): few PAX6 cells
pSMAD1 / SMAD1 levels (hESCs [3]): high pSMAD1 levels

B3: CRP: recombinant C-reactive protein (R&D Systems), a pentraxin protein (protein, UniProt P02741 19-224, looked up)
C-reactive protein: QTDMSRKAFVFPKESDTSYVSLKAPLTKPLKAFTVCLHFYTELSSTRGYSIFSYATKRQDNEILIFWSKDIGYSFTVGGSEILFEVPEVTVAPVHICTSWESASGIVEFWVDGKPRVRKSLKKGYTVGAEASIILGQEQDSFGGNFEGSQSLVGDIGNVNMWDFVLSPDEINTIYLGGPFSPNVLNWRALKYEVQGEVFTKPQLWP
NPTX1 expression (hESCs [4]): increase
neural marker PAX6 compared to the control (hESCs [4]): striking up-regulation
